Measured values reported in patent US20070161644A1, “Erastin analogs and uses thereof” (priority 2005, published 2007).

Columns and labels:
Experiment in all cases: Calcein AM viability assay, dilution series
Assay type in all cases: cell-based, human
Conditions in all cases: 50% inhibition of calcein AM staining; 16-point two-fold dilution; two days
TIP5/TERT/E6/E7 cells = tested on: TIP5/TERT/E6/E7 cells
Description: (§1) Described here is work carried out to identify compounds with increased potency or activity in the presence of hTERT, LT, ST, E6, E7 or RAS^V12. Although the work described herein made use of hTERT, LT, ST, E6, E7 and RAS^V12 as transforming genes, future studies can make use of a wide variety of cancer-associated alleles using this methodology in order to define the signaling networks that involve many oncogenes and tumor suppressors. Engineered cell lines with these genetic elements were used to screen 23,550 compounds, including 20,000 compounds from a combinatorial library, 1,990 compounds from the National Cancer Institute diversity collection, and 1,540 biologically active known compounds that were selected and purchased by Applicant and formatted into a screenable collection. The primary screen tested (in quadruplicate) the effect of treating tumorigenic BJ-TERT/LT/ST/RAS^V12 engineered tumorigenic cells with each compound for 48 hours at a concentration of 4 μg/mL, corresponding to 10 μM for a compound with a molecular weight of 400, which is the approximate median molecular weight of the libraries. Cell viability was measured using the dye calcein acetoxymethyl ester (calcein AM) (Wang et al., 1993, Hum. Immunol. 37, 264-270), which is a non-fluorescent compound that freely diffuses into cells. In live cells, calcein AM is cleaved by intracellular esterases, forming the anionic fluorescent derivative calcein, which cannot diffuse out of live cells. […] The IC50 value (concentration required to inhibit 50% of the calcein AM signal) was calculated for each compound in each cell line (Table 1). […] Following is a more detailed analysis of these nine compounds.
(§2) Calcein acetoxylmethyl ester (AM) is a cell membrane-permeable, non-fluorescent compound that is cleaved by intracellular esterases to form the anionic, cell-impermeable, fluorescent compound calcein. Viable cells are stained by calcein because of the presence of intracellular esterases and because the intact plasma membrane prevents fluorescent calcein from leaking out of cells (Wang et al., 1993, supra). Cells were seeded in 384-well plates using a Zymark Sciclone ALH, treated with each compound in triplicate at 4 μg/mL in the primary screen for two days, washed with phosphate-buffered saline on a Packard Minitrak with a 384-well washer and incubated for four hours with 0.7 μg/mL calcein (Molecular Probes). Total fluorescence intensity in each well was recorded on a Packard Fusion platereader, and converted to a percent inhibition of signal by subtracting the instrument background and dividing by the average signal obtained when cells were not treated with any compound.
(§3) Compounds to be retested were purchased from manufacturers. Stocks were prepared in DMSO at a concentration of 1 mg/ml in 384-well polypropylene plates with a 16-point, two-fold dilution dose curve of each compound in a column, in duplicates. Column 1-2 and 23-24 were left empty for controls. Daughter retest plates were prepared from stock retest plate by diluting 66.6 fold in DMEM in 384-well deep-deep well plates (4.5 μl transfer into 300 μl). Cells were seeded at a density of 6000 per well in 40 μl, and 20 μl was added from a daughter retest plate. The plates were incubated for two days at 37° C. with 5% CO2.
(§4) Mean RFU (relative fluorescence units) for untreated cells was calculated by averaging columns 1, 2, and 23 (wells with cells but lacking compounds). The calcein background was calculated by averaging column 24 (wells with calcein, but lacking cells). Percentage inhibition of each well was calculated as [1−(RFU−calcein control)/(untreated cell−calcein control)*100]. Compounds causing at least 50% inhibition of calcein staining in the primary screen were tested for selectivity towards BJ-TERT/LT/ST/RAS^V12 engineered tumor cells by testing in BJ primary and BJ-TERT/LT/ST/RAS^V12 cells at a range of concentrations. Selective compounds were retested in all engineered cell lines.

TIP5/TERT/E6/E7/ST cells = tested on: TIP5/TERT/E6/E7/ST cells
Description: as §1, §2, §3, §4

TIP5/TERT/LT cells = tested on: TIP5/TERT/LT cells
Description: as §1, §2, §3, §4

BJ primary cells = tested on: BJ primary cells
Description: as §1, §2, §3, §4

[1] = tested on: TIP5/TERT/E6/E7/ST/RAS^V12 cells
Description: as §1, §2, §3, §4

[2] = tested on: TIP5/TERT/LT/ST/RAS^V12 cells
Description: as §1, §2, §3, §4

BJ-TERT/LT/ST cells = tested on: BJ-TERT/LT/ST cells
Description: as §1, §2, §3, §4

[3] = tested on: BJ-TERT/LT/RAS^V12/ST cells
Description: as §1, §2, §3, §4

TIP5/TERT cells = tested on: TIP5/TERT cells
Description: as §1, §2, §3, §4

[4] = tested on: BJ-TERT/LT/ST/RAS^V12 cells
Procedure: Described here is work carried out to identify compounds with increased potency or activity in the presence of hTERT, LT, ST, E6, E7 or RAS^V12. Although the work described herein made use of hTERT, LT, ST, E6, E7 and RAS^V12 as transforming genes, future studies can make use of a wide variety of cancer-associated alleles using this methodology in order to define the signaling networks that involve many oncogenes and tumor suppressors. […] Cell viability was measured using the dye calcein acetoxymethyl ester (calcein AM) (Wang et al., 1993, Hum. Immunol. 37, 264-270), which is a non-fluorescent compound that freely diffuses into cells. […]
Calcein acetoxylmethyl ester (AM) is a cell membrane-permeable, non-fluorescent compound that is cleaved by intracellular esterases to form the anionic, cell-impermeable, fluorescent compound calcein. […] Total fluorescence intensity in each well was recorded on a Packard Fusion platereader, and converted to a percent inhibition of signal by subtracting the instrument background and dividing by the average signal obtained when cells were not treated with any compound. […]
Mean RFU (relative fluorescence units) for untreated cells was calculated by averaging columns 1, 2, and 23 (wells with cells but lacking compounds). The calcein background was calculated by averaging column 24 (wells with calcein, but lacking cells). […]

## Cc1c2ccccc2c(CSC(=N)N)c2ccccc12.Cl [NSC146109]
TIP5/TERT/E6/E7 cells
  IC50 TIP5-TERT/E6E7: 2.5 µg/mL
TIP5/TERT/E6/E7/ST cells
  IC50 TIP5-TERT/E6E7/ST: 2.5 µg/mL
TIP5/TERT/LT cells
  IC50 TIP5-TERT/LT: >5 µg/mL
BJ primary cells
  IC50 BJ: >5 µg/mL
[1]
  IC50 TIP5-TERT/E6E7/ST/Ras^v12: 2.5 µg/mL
[2]
  IC50 TIP5-TERT/LT/ST/Ras^v12: 2.5 µg/mL
BJ-TERT/LT/ST cells
  IC50 BJ-TERT/LT/ST: 2.5 µg/mL
[3]
  IC50 BJ-TERT/LT/Ras^v12/ST: 2.5 µg/mL
TIP5/TERT cells
  IC50 TIP5-TERT: >5 µg/mL
[4]
  IC50 BJ-TERT/LT/ST/Ras^v12: 2.5 µg/mL
